From patent US20230111914A1, “SYNTHETIC TRITERPENOIDS WITH NITROGEN-BASED SUBSTITUENTS AT C-17 AND METHODS OF USE THEREOF” (REATA PHARMACEUTICALS, INC., priority 2019, published 2023)
Where “and” joins values, the source holds several entries; their conditions need not be identical. Equal entries are not always repeated. Where two headings read alike, the source gives them in different places. Marks after values point to notes of the source that are not given here.

How the values were obtained:
[1] = tested on: IFNγ-induced NO production in RAW 264.7 cells; assay: Nitric oxide suppression assay (IFNγ-induced NO production, Griess nitrite readout); type: cell-based, mouse; details: for IC50: 2 h pretreatment, 20 ng/mL interferon gamma 24 h, average of trials per footnote, read-out: NO IC50
[2] = tested on: AREc32 reporter cell line (luciferase reporter under eight copies of the rat GSTA2 ARE sequence); assay: AREc32 luciferase reporter activation; type: cell-based, human; details: for EC (2-fold): Homo sapiens, Arec32, concentration that increases the luminescence signal 2-fold above vehicle, 19 h treatment, read-out: AREc32 EC2X (Mean ± SD)
[3] = Mus musculus, RAW264.7, RAW 264.7 cells

| SMILES | NO IC50 Rel. to RTA 402 [1] | IC50 [1, 3] [nM] | AREc32 EC2X Relative to RTA 402 (Mean ± SD) [2] | EC (2-fold) [2] [µM] | IC50 ([1]; RAW 264.7 cells) [nM] | times more active (NO IC50) than 63170 relative to RTA 402 [1] | times more active (NO IC50) than 63172 relative to RTA 402 [1] | times more active (NO IC50) than 63183 relative to RTA 402 [1] |
| --- | --- | --- | --- | --- | --- | --- | --- | --- |
| CC1(C)CC[C@]2(CNC(=O)OC(C)(C)C)CC[C@]3(C)[C@H](C(=O)C=C4[C@@]5(C)C=C(C#N)C(=O)C(C)(C)[C@@H]5CC[C@]43C)[C@@H]2C1 [CC1, reference compound] | 2.06 ± 0.56^e fold | 5.04 ± 2.62 | 2.1 ± 0.00^a fold | 0.0211 ± 0.00475 |  |  |  |  |
| CC1(C)CC[C@]2(CN)CC[C@]3(C)[C@H](C(=O)C=C4[C@@]5(C)C=C(C#N)C(=O)C(C)(C)[C@@H]5CC[C@]43C)[C@@H]2C1 [CC2, reference compound] | 1.55 fold and 1.55 ± 0.30^e fold | 3.15 | 1.6 ± 0.17^g fold | 0.0161 ± 0.00081 |  |  |  |  |
| CC1(C)CC[C@]2(N)CC[C@]3(C)[C@H](C(=O)C=C4[C@@]5(C)C=C(C#N)C(=O)C(C)(C)[C@@H]5CC[C@]43C)[C@@H]2C1 [CC4, reference compound] | 2.41 fold and 2.41 ± 0.49^b fold | 3.75 |  |  |  |  |  |  |
| CC(=O)N[C@]12CCC(C)(C)C[C@H]1[C@H]1C(=O)C=C3[C@@]4(C)C=C(C#N)C(=O)C(C)(C)[C@@H]4CC[C@@]3(C)[C@]1(C)CC2 [Compound 63170, reference compound] | 4.95 fold | 8.45 |  |  |  |  |  |  |
| CNC(=O)N[C@]12CCC(C)(C)C[C@H]1[C@H]1C(=O)C=C3[C@@]4(C)C=C(C#N)C(=O)C(C)(C)[C@@H]4CC[C@@]3(C)[C@]1(C)CC2 [Compound 63172, reference compound] | 7.73 fold | 21.6 |  |  |  |  |  |  |
| C=CC(=O)N[C@]12CCC(C)(C)C[C@H]1[C@H]1C(=O)C=C3[C@@]4(C)C=C(C#N)C(=O)C(C)(C)[C@@H]4CC[C@@]3(C)[C@]1(C)CC2 [Compound 63183, reference compound] | 1.35 fold | 4 |  |  | 2.39 |  |  |  |
| CCC(=O)N[C@]12CCC(C)(C)C[C@H]1[C@H]1C(=O)C=C3[C@@]4(C)C=C(C#N)C(=O)C(C)(C)[C@@H]4CC[C@@]3(C)[C@]1(C)CC2 [Compound 63189, reference compound] | 4.06 fold | 7.2 |  |  |  |  |  |  |
| CC1(C)CC[C@]2(c3nn[nH]n3)CC[C@]3(C)[C@H](C(=O)C=C4[C@@]5(C)C=C(C#N)C(=O)C(C)(C)[C@@H]5CC[C@]43C)[C@@H]2C1 [Compound 63229, reference compound] | >75.85 fold | > 200 |  |  |  |  |  |  |
| CC1(C)CC[C@]2(NC(=O)C3CC3)CC[C@]3(C)[C@H](C(=O)C=C4[C@@]5(C)C=C(C#N)C(=O)C(C)(C)[C@@H]5CC[C@]43C)[C@@H]2C1 [Compound 63236, reference compound] | 57.25 fold |  |  |  | 143 |  |  |  |
| C[C@@H]1C(=O)C(C#N)=C[C@]2(C)C3=CC(=O)[C@@H]4[C@@H]5CC(C)(C)CC[C@]5(NC(=O)C5CC5)CC[C@@]4(C)[C@]3(C)CC[C@@H]12 [Compound 63866, reference compound] | 1.16 fold | 1.43 |  |  |  |  |  |  |
| CC(=O)NC[C@]12CCC(C)(C)C[C@H]1[C@H]1C(=O)C=C3[C@@]4(C)C=C(C#N)C(=O)C(C)(C)[C@@H]4CC[C@@]3(C)[C@]1(C)CC2 [Compound T3] | 0.17 fold and 0.17 ± 0.04^e fold | 0.44 | 0.2 ± 0.08^a fold | 0.0024 ± 0.00044 |  | more than 29 times |  |  |
| CN(C[C@]12CCC(C)(C)C[C@H]1[C@H]1C(=O)C=C3[C@@]4(C)C=C(C#N)C(=O)C(C)(C)[C@@H]4CC[C@@]3(C)[C@]1(C)CC2)C(=O)OC(C)(C)C [Compound T5] | 6.04 ± 2.02^d fold | 14.2 ± 6.51 | 3.9 ± 0.36^a fold | 0.0425 ± 0.00947 |  |  |  |  |
| CNC[C@]12CCC(C)(C)C[C@H]1[C@H]1C(=O)C=C3[C@@]4(C)C=C(C#N)C(=O)C(C)(C)[C@@H]4CC[C@@]3(C)[C@]1(C)CC2 [Compound T6] | 1.60 ± 0.23^e fold | 3.35 ± 1.62 | 1.2 ± 0.35^a fold | 0.0169 ± 3e-05 |  |  |  |  |
| CC(=O)N(C)C[C@]12CCC(C)(C)C[C@H]1[C@H]1C(=O)C=C3[C@@]4(C)C=C(C#N)C(=O)C(C)(C)[C@@H]4CC[C@@]3(C)[C@]1(C)CC2 [Compound T7] | 0.49 ± 0.14^e fold | 0.84 ± 0.37 | 0.5 ± 0.14^a fold | 0.0068 ± 3e-05 |  |  |  |  |
| CNC(=O)NC[C@]12CCC(C)(C)C[C@H]1[C@H]1C(=O)C=C3[C@@]4(C)C=C(C#N)C(=O)C(C)(C)[C@@H]4CC[C@@]3(C)[C@]1(C)CC2 [Compound T8] | 0.21 fold and 0.21 ± 0.05^d fold | 0.46 | 0.2 ± 0.06^a fold | 0.0028 ± 4e-05 |  |  | roughly 37 times |  |
| CNC(=O)N(C)C[C@]12CCC(C)(C)C[C@H]1[C@H]1C(=O)C=C3[C@@]4(C)C=C(C#N)C(=O)C(C)(C)[C@@H]4CC[C@@]3(C)[C@]1(C)CC2 [Compound T9] | 0.38 ± 0.15^e fold | 0.7 ± 0.18 | 0.5 ± 0.20^a fold | 0.0072 ± 0.00077 |  |  |  |  |

| SMILES | NO IC50 Rel. to RTA 402 [1] | IC50 [1, 3] [nM] | AREc32 EC2X Relative to RTA 402 (Mean ± SD) [2] | EC (2-fold) [2] [µM] | IC50 ([1]; RAW 264.7 cells) [nM] | times more active (NO IC50) than 63170 relative to RTA 402 [1] | times more active (NO IC50) than 63172 relative to RTA 402 [1] | times more active (NO IC50) than 63183 relative to RTA 402 [1] |
| --- | --- | --- | --- | --- | --- | --- | --- | --- |
| CC1(C)CC[C@]2(CNCCO)CC[C@]3(C)[C@H](C(=O)C=C4[C@@]5(C)C=C(C#N)C(=O)C(C)(C)[C@@H]5CC[C@]43C)[C@@H]2C1 [Compound T12] | 4.07 ± 1.08^e fold | 7.47 ± 0.85 | 1.7^e fold | 0.0218 |  |  |  |  |
| CC1(C)CC[C@]2(CN3CCOC3=O)CC[C@]3(C)[C@H](C(=O)C=C4[C@@]5(C)C=C(C#N)C(=O)C(C)(C)[C@@H]5CC[C@]43C)[C@@H]2C1 [Compound T13] | 0.65 ± 0.21^e fold | 1.74 ± 0.55 | 0.5^e fold | 0.00512 |  |  |  |  |
| CC1(C)CC[C@]2(CN3CCNC3=O)CC[C@]3(C)[C@H](C(=O)C=C4[C@@]5(C)C=C(C#N)C(=O)C(C)(C)[C@@H]5CC[C@]43C)[C@@H]2C1 [Compound T14] | 0.51 ± 0.09^e fold | 0.89 ± 0.08 | 0.4^e fold | 0.00437 |  |  |  |  |
| CN1CCN(C[C@]23CCC(C)(C)C[C@H]2[C@H]2C(=O)C=C4[C@@]5(C)C=C(C#N)C(=O)C(C)(C)[C@@H]5CC[C@@]4(C)[C@]2(C)CC3)C1=O [Compound T15] | 0.64 ± 0.26^d fold | 1.18 ± 0.5 | 0.5^e fold | 0.00607 |  |  |  |  |
| C=CC(=O)NC[C@]12CCC(C)(C)C[C@H]1[C@H]1C(=O)C=C3[C@@]4(C)C=C(C#N)C(=O)C(C)(C)[C@@H]4CC[C@@]3(C)[C@]1(C)CC2 [Compound T16] | 0.21 fold and 0.21 ± 0.05^d fold | 0.37 | 0.2 ± 0.05^f fold | 0.002 ± 0.00018 |  |  |  | more than 6 times |
| CC1(C)CC[C@]2(N3CCNC3=O)CC[C@]3(C)[C@H](C(=O)C=C4[C@@]5(C)C=C(C#N)C(=O)C(C)(C)[C@@H]5CC[C@]43C)[C@@H]2C1 [Compound T30] | 3.68 ± 0.33^d fold | 15 ± 2.92 |  |  |  |  |  |  |
| CC1(C)CC[C@]2(n3cc[nH]c3=O)CC[C@]3(C)[C@H](C(=O)C=C4[C@@]5(C)C=C(C#N)C(=O)C(C)(C)[C@@H]5CC[C@]43C)[C@@H]2C1 [Compound T45] | 4.02 ± 0.61^d fold | 16.4 ± 2.94 |  |  |  |  |  |  |
| CC1(C)CC[C@]2(CN3C(=O)CCN3C(=O)OC(C)(C)C)CC[C@]3(C)[C@H](C(=O)C=C4[C@@]5(C)C=C(C#N)C(=O)C(C)(C)[C@@H]5CC[C@]43C)[C@@H]2C1 [Compound T50] | 1.17 ± 0.18^d fold | 4.82 ± 1.3 |  |  |  |  |  |  |
| CN1CC(=O)N([C@]23CCC(C)(C)C[C@H]2[C@H]2C(=O)C=C4[C@@]5(C)C=C(C#N)C(=O)C(C)(C)[C@@H]5CC[C@@]4(C)[C@]2(C)CC3)CC1=O [Compound T54] | 16.18 ± 3.50^e fold | 64.6 ± 19.7 |  |  |  |  |  |  |
| CC1(C)CC[C@]2(N(NC(=O)OC(C)(C)C)C(=O)OC(C)(C)C)CC[C@]3(C)[C@H](C(=O)C=C4[C@@]5(C)C=C(C#N)C(=O)C(C)(C)[C@@H]5CC[C@]43C)[C@@H]2C1 [Compound T55] | 17.42 ± 0.43^e fold | 68.9 ± 10 |  |  |  |  |  |  |
| CC1(C)CC[C@]2(n3nccc3C(F)(F)F)CC[C@]3(C)[C@H](C(=O)C=C4[C@@]5(C)C=C(C#N)C(=O)C(C)(C)[C@@H]5CC[C@]43C)[C@@H]2C1 [Compound T59] | 12.08 ± 2.93^d fold | 49.5 ± 13.8 |  |  |  |  |  |  |
| CC1(C)CC[C@]2(n3ccc(C(F)(F)F)n3)CC[C@]3(C)[C@H](C(=O)C=C4[C@@]5(C)C=C(C#N)C(=O)C(C)(C)[C@@H]5CC[C@]43C)[C@@H]2C1 [Compound T60] | 11.32 ± 1.49^e fold | 45.1 ± 10.6 |  |  |  |  |  |  |
| CN1CCN([C@]23CCC(C)(C)C[C@H]2[C@H]2C(=O)C=C4[C@@]5(C)C=C(C#N)C(=O)C(C)(C)[C@@H]5CC[C@@]4(C)[C@]2(C)CC3)CC1=O [Compound T61] | 3.18 ± 0.67^d fold | 13.2 ± 3.78 |  |  |  |  |  |  |
| CC1(C)CC[C@]2(CN3CC(O)C3)CC[C@]3(C)C(O)(C(=O)C=C4[C@@]5(C)C=C(C#N)C(=O)C(C)(C)[C@@H]5CC[C@]43C)[C@@H]2C1 (some centres unmarked) [Compound T64] | 1.64 ± 0.16^e fold | 3.82 ± 1.76 |  |  |  |  |  |  |
| CC1(C)CC[C@]2(NC(=O)C3CC3)CC[C@]3(C)[C@H](C(=O)C=C4[C@@]5(C)C=C(C#N)C(=O)C(C)(C)[C@@H]5CC[C@]43C)[C@@H]2C1 [Compound T68] | 6.51 ± 1.38^i fold |  |  |  | 11.4 ± 5.17 |  |  |  |
